Laboratory results published in US20110053773A1, “METHODS OF IMPROVING NUTRITIONAL VALUE OF PLANTS” (UNIVERSITY OF TENNESSEE RESEARCH FOUNDATION, priority 2009, published 2011).

Assays:
[1] = tested on: sweet corn variety WH0809; assay: Visual injury of sweet corn after POST herbicide inhibitors of photosynthesis (Example 2); assay type: in vivo
Procedure: (§1) A field study was conducted at Greenback, TN to investigate POST applications of several herbicide inhibitors of photosynthesis for sweet corn safety and for changes in carbohydrate content in the kernels of sweet corn among treatments. Treatments included bentazon at 1120 and 2240 g ai/ha, linuron at 280 and 560 g ai/ha, metribuzin at 105 and 210 g ai/ha, and bromoxynil at 560 and 1120 g ai/ha. All treatments included a PRE application of a common residual corn herbicide in order to maintain weed free conditions. […] Sweet corn was harvested from the center two rows of each four row plot and weighed in the husk. Eight ears of corn were harvested from each plot and were pooled over replicates for analysis of key carbohydrates which included the sugars sucrose, fructose, glucose, maltose, and raffanose.

[2] = tested on: sweet corn variety WH0809; assay: Sweet corn yield, harvested and weighed in the husk (Example 2); assay type: in vivo; conditions: treated check 9758.4
Procedure: as §1

[3] = tested on: sweet corn variety WH0809; assay: Sugar content of sweet corn kernels (Example 2); assay type: in vivo; conditions: for Sugar content Raffanose: treated check 0.51; for Sugar content Maltose: treated check 0.61; for Sugar content Fructose: treated check 1.04; for Sugar content Glucose: treated check 1.91; for Sugar content Sucrose: treated check 10.72
Procedure: as §1

basil 'Genovese' [4] = assay: Visual injury of basil after insecticide, fungicide, PGRs, safeners (Example 4)
Procedure: (§2) Greenhouse and laboratory studies were conducted to ascertain the tolerance and nutritional quality differences following postemergence applications of the insecticide chlorpyrifos, the fungicide chlorothalonil, the PGRs mepiquat-chloride and paclobutrazol, and the safeners napthalic anhydride and isoxadifen-ethyl on kale ‘Red Russian’ and basil ‘Genovese’. Visual injury was rated based on general phytotoxicity, chlorosis, and visual stunting and each measurement was based on a percent scale from 0 to 100 where 0 equals no visual response and 100 equals complete plant death. Kale and basil were both harvested approximately 4 weeks after treatments and plants were pooled over replicates for content analysis of crude protein, crude amino acid content, acid detergent fiber, neutral detergent fiber, total fatty acids, and/or key mineral content (including Na, Ca, P, Mg, K, Fe, Mn, Zn, and Cu). In addition, the amounts of key individual amino acids (aspartic acid, threonine, glutamic acid, proline, glycine, cysteine, valine, leucine, isoleucine, methionine, and lysine) and composite classifications of fatty acid (saturated fatty acids, monounsaturated fatty acids, polyunsaturated fatty acids) were also analyzed from these sub-samples for kale (Tables 10-14).

basil 'Genovese' [5] = assay: Content analysis of basil: protein, minerals (Example 4, Tables 10-11); assay type: in vivo; conditions: 28 DA-A
Procedure: as §2

basil ‘Genovese’ = assay: Yield, fresh weight of basil after insecticide, fungicide, PGRs and safeners (Example 4, Table 10); assay type: in vivo; conditions: DA-A, check 31.8
Procedure: as §2

[6] = 7 DA-A, rates g ai/ha: chlropyrifos 1120, chlorothalonil 2630, paclobutrazol 3.23, mepiquat-chloride 12.3, Isoxadifen 8, Napthalic anhydride 264, + NIS 0.25 % v/v
[7] = 7 DA-A, rates g ai/ha: chlropyrifos 3370, chlorothalonil 7900, paclobutrazol 9.7, mepiquat-chloride 37, Isoxadifen 16, Napthalic anhydride 527, + NIS 0.25 % v/v
[8] = 14 DA-A, rates g ai/ha: chlropyrifos 1120, chlorothalonil 2630, paclobutrazol 3.23, mepiquat-chloride 12.3, Isoxadifen 8, Napthalic anhydride 264, + NIS 0.25 % v/v
[9] = 14 DA-A, rates g ai/ha: chlropyrifos 3370, chlorothalonil 7900, paclobutrazol 9.7, mepiquat-chloride 37, Isoxadifen 16, Napthalic anhydride 527, + NIS 0.25 % v/v
[10] = 28 DA-A, rates g ai/ha: chlropyrifos 1120, chlorothalonil 2630, paclobutrazol 3.23, mepiquat-chloride 12.3, Isoxadifen 8, Napthalic anhydride 264, + NIS 0.25 % v/v
[11] = 28 DA-A, rates g ai/ha: chlropyrifos 3370, chlorothalonil 7900, paclobutrazol 9.7, mepiquat-chloride 37, Isoxadifen 16, Napthalic anhydride 527, + NIS 0.25 % v/v
[12] = rates g ai/ha: chlroprifos 3370, chlorothalonil 7900, paclobutrazol 9.7, mepiquat-chloride 37, Isoxadifen 16, Napthalic anhydride 527, + NIS 0.25 % v/v
[13] = rates g ai/ha: chlropyrifos 1120, chlorothalonil 2630, paclobutrazol 3.23, mepiquat-chloride 12.3, Isoxadifen 8, Napthalic anhydride 264, + NIS 0.25 % v/v

Molecule N#Cc1cc(Br)c(O)c(Br)c1 [BROMOXYNIL, bromoxynil] has an Injury ([1]; 560 g ai/ha + COC 1% v/v POST, 1st of 3 Injury columns, rating date not given) of 37%, an Injury ([1]; 560 g ai/ha + COC 1% v/v POST, 2nd of 3 Injury columns (agrees with 14 DAT of b67)) of 35% and an Injury ([1]; 560 g ai/ha + COC 1% v/v POST, 3rd of 3 Injury columns, rating date not given) of 27%. The Injury ([1]; 1120 g ai/ha + COC 1% v/v POST, 1st of 3 Injury columns, rating date not given) was 45%, the Injury ([1]; 1120 g ai/ha + COC 1% v/v POST, 2nd of 3 Injury columns (agrees with 14 DAT of b67)) was 47% and the Injury ([1]; 1120 g ai/ha + COC 1% v/v POST, 3rd of 3 Injury columns, rating date not given) was 35%. The YIELD ([2]; 560 g ai/ha + COC 1% v/v POST) was 9436.2 kg, the YIELD ([2]; 1120 g ai/ha + COC 1% v/v POST) was 9142.6 kg and the “Sugar content Raffanose” value ([3]; 560 g ai/ha + COC 1% v/v POST) was 0.77 mg/g dw. The “Sugar content Maltose” value ([3]; 560 g ai/ha + COC 1% v/v POST) was 0.88 mg/g dw, the “Sugar content Fructose” value ([3]; 560 g ai/ha + COC 1% v/v POST) was 1.74 mg/g dw and the “Sugar content Glucose” value ([3]; 560 g ai/ha + COC 1% v/v POST) was 3.07 mg/g dw. The “Sugar content Sucrose” value ([3]; 560 g ai/ha + COC 1% v/v POST) was 15.56 mg/g dw, the “Sugar content Raffanose” value ([3]; 1120 g ai/ha + COC 1% v/v POST) was 0.54 mg/g dw and the “Sugar content Maltose” value ([3]; 1120 g ai/ha + COC 1% v/v POST) was 0.60 mg/g dw. For the same molecule, the “Sugar content Fructose” value ([3]; 1120 g ai/ha + COC 1% v/v POST) was 1.77 mg/g dw, the “Sugar content Glucose” value ([3]; 1120 g ai/ha + COC 1% v/v POST) was 2.70 mg/g dw and the “Sugar content Sucrose” value ([3]; 1120 g ai/ha + COC 1% v/v POST) was 14.50 mg/g dw.

For CCOC(=O)C1=NOC(c2ccccc2)(c2ccccc2)C1 [isoxadifen, isoxadifen-ethyl], the “Phytotoxicity Chlorosis” value (basil 'Genovese' [4]; [6]) was 8%, the “Phytotoxicity General” value (basil 'Genovese' [4]; [6]) was 3% and the “Phytotoxicity Stunting” value (basil 'Genovese' [4]; [6]) was 2%. The “Phytotoxicity Chlorosis” value (basil 'Genovese' [4]; [7]) was 7%, the “Phytotoxicity General” value (basil 'Genovese' [4]; [7]) was 7% and the “Phytotoxicity Stunting” value (basil 'Genovese' [4]; [7]) was 7%. The “Phytotoxicity Chlorosis” value (basil 'Genovese' [4]; [8]) was 5%, the “Phytotoxicity General” value (basil 'Genovese' [4]; [8]) was 2% and the “Phytotoxicity Stunting” value (basil 'Genovese' [4]; [8]) was 5%. The “Phytotoxicity Chlorosis” value (basil 'Genovese' [4]; [9]) was 8%, the “Phytotoxicity General” value (basil 'Genovese' [4]; [9]) was 8% and the “Phytotoxicity Stunting” value (basil 'Genovese' [4]; [9]) was 10%. For the same molecule, the “Phytotoxicity Chlorosis” value (basil 'Genovese' [4]; [10]) was 2%, the “Phytotoxicity General” value (basil 'Genovese' [4]; [10]) was 2% and the “Phytotoxicity Stunting” value (basil 'Genovese' [4]; [10]) was 5%. The “Phytotoxicity Chlorosis” value (basil 'Genovese' [4]; [11]) was 0%, the “Phytotoxicity General” value (basil 'Genovese' [4]; [11]) was 7% and the “Phytotoxicity Stunting” value (basil 'Genovese' [4]; [11]) was 8%. The “ADF, Percent Increase Over the Untreated Check (on a % dry matter basis)” value (basil 'Genovese' [5]; [12]) was 13 % check, the “Calcium, Percent Increase Over the Untreated Check (on a % dry matter basis)” value (basil 'Genovese' [5]; [12]) was 6 % check and the “Copper, Percent Increase Over the Untreated Check (on a % dry matter basis)” value (basil 'Genovese' [5]; [12]) was 0 % check. For the same molecule, the “Iron, Percent Increase Over the Untreated Check (on a % dry matter basis)” value (basil 'Genovese' [5]; [12]) was 27 % check, the “Magnesium, Percent Increase Over the Untreated Check (on a % dry matter basis)” value (basil 'Genovese' [5]; [12]) was 12 % check and the “Manganese, Percent Increase Over the Untreated Check (on a % dry matter basis)” value (basil 'Genovese' [5]; [12]) was 118 % check. The “NDF, Percent Increase Over the Untreated Check (on a % dry matter basis)” value (basil 'Genovese' [5]; [12]) was 0 % check, the “Phosphorous, Percent Increase Over the Untreated Check (on a % dry matter basis)” value (basil 'Genovese' [5]; [12]) was 28 % check and the “Potassium, Percent Increase Over the Untreated Check (on a % dry matter basis)” value (basil 'Genovese' [5]; [12]) was 16 % check. For the same molecule, the “Protein, Percent Increase Over the Untreated Check (on a % dry matter basis)” value (basil 'Genovese' [5]; [12]) was 22 % check, the “Sodium, Percent Increase Over the Untreated Check (on a % dry matter basis)” value (basil 'Genovese' [5]; [12]) was 17 % check and the “Soluble protein, Percent Increase Over the Untreated Check (on a % dry matter basis)” value (basil 'Genovese' [5]; [12]) was 4 % check. For the same molecule, the “Zinc, Percent Increase Over the Untreated Check (on a % dry matter basis)” value (basil 'Genovese' [5]; [12]) was 34 % check, the “ADF, Percent Increase Over the Untreated Check (on a % dry matter basis)” value (basil 'Genovese' [5]; [13]) was 6 % check and the “Calcium, Percent Increase Over the Untreated Check (on a % dry matter basis)” value (basil 'Genovese' [5]; [13]) was −2 % check. For the same molecule, the “Copper, Percent Increase Over the Untreated Check (on a % dry matter basis)” value (basil 'Genovese' [5]; [13]) was 0 % check, the “Iron, Percent Increase Over the Untreated Check (on a % dry matter basis)” value (basil 'Genovese' [5]; [13]) was 25 % check and the “Magnesium, Percent Increase Over the Untreated Check (on a % dry matter basis)” value (basil 'Genovese' [5]; [13]) was 9 % check. For the same molecule, the “Manganese, Percent Increase Over the Untreated Check (on a % dry matter basis)” value (basil 'Genovese' [5]; [13]) was 10 % check, the “NDF, Percent Increase Over the Untreated Check (on a % dry matter basis)” value (basil 'Genovese' [5]; [13]) was 1 % check and the “Phosphorous, Percent Increase Over the Untreated Check (on a % dry matter basis)” value (basil 'Genovese' [5]; [13]) was 17 % check. The “Potassium, Percent Increase Over the Untreated Check (on a % dry matter basis)” value (basil 'Genovese' [5]; [13]) was 17 % check, the “Protein, Percent Increase Over the Untreated Check (on a % dry matter basis)” value (basil 'Genovese' [5]; [13]) was 14 % check and the “Sodium, Percent Increase Over the Untreated Check (on a % dry matter basis)” value (basil 'Genovese' [5]; [13]) was 27 % check. For the same molecule, the “Soluble protein, Percent Increase Over the Untreated Check (on a % dry matter basis)” value (basil 'Genovese' [5]; [13]) was 12 % check, the “Zinc, Percent Increase Over the Untreated Check (on a % dry matter basis)” value (basil 'Genovese' [5]; [13]) was 38 % check and the “Yield Fresh weight” value (basil ‘Genovese’; [13]) was 34.2 grams. The “Yield Fresh weight” value (basil ‘Genovese’; rates g ai/ha: chlropyrifos 3370, chlorothalonil 7900, paclobutrazol 9.7, mepiquat-chloride 37, Isoxadifen 16, Napthalic anhydride 527, + NIS 0.25 % v/v) was 36.9 grams.
